Columns and labels:
Assay in all cases: relative viability (nuclei count vs DMSO), 5 days (fraction); higher = more cells survive
A-427 = test system: A-427
Summary of the method: (§1)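 Lung cancer cell lines were pin-tool dosed in 1536-well plates on the day after seeding, with either a lone drug or a fixed anchor-drug dose plus five library-drug doses (not always all listed) in √10 steps. Nuclei were counted on 4× images after 5 days. Relative viability is the ratio of treated-well to vehicle-well nuclei counts, with each value a median of duplicate plates.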

CAL-12T = test system: CAL-12T
Summary of the method: as §1

COR-L 105 = test system: COR-L 105
Summary of the method: as §1

EMC-BAC-2 = test system: EMC-BAC-2
Summary of the method: as §1

HARA = test system: HARA
Summary of the method: as §1

HCC-366 = test system: HCC-366
Summary of the method: as §1

HCC-827 = test system: HCC-827
Summary of the method: as §1

HOP-62 = test system: HOP-62
Summary of the method: as §1

LCLC-103H = test system: LCLC-103H
Summary of the method: as §1

NCI-H1355 = test system: NCI-H1355
Summary of the method: as §1

NCI-H1395 = test system: NCI-H1395
Summary of the method: as §1

NCI-H1437 = test system: NCI-H1437
Summary of the method: as §1

NCI-H1755 = test system: NCI-H1755
Summary of the method: as §1

NCI-H1792 = test system: NCI-H1792
Summary of the method: as §1

NCI-H1915 = test system: NCI-H1915
Summary of the method: as §1

NCI-H1975 = test system: NCI-H1975
Summary of the method: as §1

NCI-H2009 = test system: NCI-H2009
Summary of the method: as §1

NCI-H2228 = test system: NCI-H2228
Summary of the method: as §1

NCI-H23 = test system: NCI-H23
Summary of the method: as §1

NCI-H460 = test system: NCI-H460
Summary of the method: as §1

NCI-H727 = test system: NCI-H727
Summary of the method: as §1

SK-LU-1 = test system: SK-LU-1
Summary of the method: as §1

SW 1573 = test system: SW 1573
Summary of the method: as §1

SMILES: Oc1nc(-c2ccc(C(F)(F)F)cc2)nc2c1CSCC2 [XAV939] + CS(=O)(=O)N1CCN(Cc2cc3nc(-c4cccc5[nH]ncc45)nc(N4CCOCC4)c3s2)CC1 [Pictilisib] (partner 1 µM)
- relative viability (A-427; first compound 0.08 µM): 0.962
- relative viability (A-427; first compound 0.253 µM): 0.63
- relative viability (A-427; first compound 0.8 µM): 0.596
- relative viability (A-427; first compound 2.53 µM): 0.65
- relative viability (CAL-12T; first compound 0.08 µM): 0.433
- relative viability (CAL-12T; first compound 0.253 µM): 0.33
- relative viability (CAL-12T; first compound 0.8 µM): 0.373
- relative viability (CAL-12T; first compound 2.53 µM): 0.34
- relative viability (COR-L 105; first compound 0.08 µM): 0.371
- relative viability (COR-L 105; first compound 0.253 µM): 0.304
- relative viability (COR-L 105; first compound 0.8 µM): 0.349
- relative viability (COR-L 105; first compound 2.53 µM): 0.347
- relative viability (EMC-BAC-2; first compound 0.08 µM): 0.56
- relative viability (EMC-BAC-2; first compound 0.253 µM): 0.487
- relative viability (EMC-BAC-2; first compound 0.8 µM): 0.416
- relative viability (EMC-BAC-2; first compound 2.53 µM): 0.314
- relative viability (HARA; first compound 0.08 µM): 0.477
- relative viability (HARA; first compound 0.253 µM): 0.386
- relative viability (HARA; first compound 0.8 µM): 0.345
- relative viability (HARA; first compound 2.53 µM): 0.394
- relative viability (HCC-366; first compound 0.08 µM): 0.164
- relative viability (HCC-366; first compound 0.253 µM): 0.114
- relative viability (HCC-366; first compound 0.8 µM): 0.142
- relative viability (HCC-366; first compound 2.53 µM): 0.0889
- relative viability (HCC-827; first compound 0.08 µM): 1.05
- relative viability (HCC-827; first compound 0.253 µM): 1.02
- relative viability (HCC-827; first compound 0.8 µM): 1.24
- relative viability (HCC-827; first compound 2.53 µM): 1.21
- relative viability (HOP-62; first compound 0.08 µM): 1.04
- relative viability (HOP-62; first compound 0.253 µM): 0.62
- relative viability (HOP-62; first compound 0.8 µM): 0.596
- relative viability (HOP-62; first compound 2.53 µM): 0.672
- relative viability (LCLC-103H; first compound 0.08 µM): 0.724
- relative viability (LCLC-103H; first compound 0.253 µM): 0.483
- relative viability (LCLC-103H; first compound 0.8 µM): 0.601
- relative viability (LCLC-103H; first compound 2.53 µM): 0.498
- relative viability (NCI-H1355; first compound 0.08 µM): 0.414
- relative viability (NCI-H1355; first compound 0.253 µM): 0.374
- relative viability (NCI-H1355; first compound 0.8 µM): 0.387
- relative viability (NCI-H1355; first compound 2.53 µM): 0.236
- relative viability (NCI-H1395; first compound 0.08 µM): 0.685
- relative viability (NCI-H1395; first compound 0.253 µM): 0.58
- relative viability (NCI-H1395; first compound 0.8 µM): 0.597
- relative viability (NCI-H1395; first compound 2.53 µM): 0.675
- relative viability (NCI-H1437; first compound 0.08 µM): 0.436
- relative viability (NCI-H1437; first compound 0.253 µM): 0.44
- relative viability (NCI-H1437; first compound 0.8 µM): 0.561
- relative viability (NCI-H1437; first compound 2.53 µM): 0.234
- relative viability (NCI-H1755; first compound 0.08 µM): 0.456
- relative viability (NCI-H1755; first compound 0.253 µM): 0.353
- relative viability (NCI-H1755; first compound 0.8 µM): 0.413
- relative viability (NCI-H1755; first compound 2.53 µM): 0.388
- relative viability (NCI-H1792; first compound 0.08 µM): 0.331
- relative viability (NCI-H1792; first compound 0.253 µM): 0.254
- relative viability (NCI-H1792; first compound 0.8 µM): 0.229
- relative viability (NCI-H1792; first compound 2.53 µM): 0.257
- relative viability (NCI-H1915; first compound 0.08 µM): 1.11
- relative viability (NCI-H1915; first compound 0.253 µM): 0.967
- relative viability (NCI-H1915; first compound 0.8 µM): 0.941
- relative viability (NCI-H1915; first compound 2.53 µM): 0.921
- relative viability (NCI-H1975; first compound 0.08 µM): 0.258
- relative viability (NCI-H1975; first compound 0.253 µM): 0.263
- relative viability (NCI-H1975; first compound 0.8 µM): 0.248
- relative viability (NCI-H1975; first compound 2.53 µM): 0.207
- relative viability (NCI-H2009; first compound 0.08 µM): 0.878
- relative viability (NCI-H2009; first compound 0.253 µM): 0.718
- relative viability (NCI-H2009; first compound 0.8 µM): 0.67
- relative viability (NCI-H2009; first compound 2.53 µM): 0.511
- relative viability (NCI-H2228; first compound 0.08 µM): 0.247
- relative viability (NCI-H2228; first compound 0.253 µM): 0.304
- relative viability (NCI-H2228; first compound 0.8 µM): 0.253
- relative viability (NCI-H2228; first compound 2.53 µM): 0.382
- relative viability (NCI-H23; first compound 0.08 µM): 0.46
- relative viability (NCI-H23; first compound 0.253 µM): 0.351
- relative viability (NCI-H23; first compound 0.8 µM): 0.33
- relative viability (NCI-H23; first compound 2.53 µM): 0.33
- relative viability (NCI-H460; first compound 0.08 µM): 0.362
- relative viability (NCI-H460; first compound 0.253 µM): 0.332
- relative viability (NCI-H460; first compound 0.8 µM): 0.284
- relative viability (NCI-H460; first compound 2.53 µM): 0.334
- relative viability (NCI-H727; first compound 0.08 µM): 0.367
- relative viability (NCI-H727; first compound 0.253 µM): 0.324
- relative viability (NCI-H727; first compound 0.8 µM): 0.415
- relative viability (NCI-H727; first compound 2.53 µM): 0.357
- relative viability (SK-LU-1; first compound 0.08 µM): 0.631
- relative viability (SK-LU-1; first compound 0.253 µM): 0.504
- relative viability (SK-LU-1; first compound 0.8 µM): 0.646
- relative viability (SK-LU-1; first compound 2.53 µM): 0.565
- relative viability (SW 1573; first compound 0.08 µM): 0.542
- relative viability (SW 1573; first compound 0.253 µM): 0.403
- relative viability (SW 1573; first compound 0.8 µM): 0.357
- relative viability (SW 1573; first compound 2.53 µM): 0.392

Source: the supplement of paper PMC10307832
